According to US6413508B1, “Green leaf volatiles as synergists for insect pheromones” (The United States of America as represented by the …, priority 1988, dated 2002):

Legend:
[1] = tested on: Single Olfactory Cells Responsive to Volatiles Emanating from a Crushed Cotton Square; assay: Single-cell electrophysiology: action potentials from single olfactory cells; assay type: cell-based, Anthonomus grandis; details: volatiles emanating from 1 μg of odorant; cell responsive to crushed cotton square
From the text: Single-cell recording techniques are described in detail elswhere [Dickens, Mitt. Schweiz. Entomol. Ges. 52: 203 (1979); Dickens et al., J. Chem. Ecol. 10: 583 (1984)]. In brief, microelectrodes used for recordings were constructed from 50.8 μm diameter tungsten wire electrolytically sharpened to a tip of 1-2 μm. The recording electrode was positioned under optical control (150-200 X) with a Leitz high-power micromanipulator near either the base of one of the three sensory bands encircling the club, or the base of an individual sensillum just distal to each sensory band region. The ground electrode was inserted in either the rostrum or distal end of the scape. Action potentials were amplified and conditioned by a Grass P-15 preamplifier and Tektronix 5A22N amplifier prior to visualization on a Tektronix 5223 digitizing oscilloscope. The signal then passed through a Teac R51-D data recorder for recording on cassette tapes prior to visualization on a Tektronix 5111 analog oscilloscope. Data were photographed from the analog oscilloscope with a Tektronix C-5C oscilloscope camera. Trains of action potentials were counted visually.
Upon obtaining a single cell preparation, odorous stimuli were presented every 3 min. […] The first two stimuli tested were volatiles emanating from 1 μg of grandlure, followed by volatiles emanating from a crushed cotton square. These two stimuli served to determine whether the cell was activated by the attractive pheromone of the boll weevil and/or volatiles emanating from its food source.

[2] = tested on: Boll Weevils; assay: Competitive field test with released weevils, four trap array; assay type: in vivo, Anthonomus grandis; details: 1.0 mg of the compound
From the text: The second series of experiments involved an array of four traps. […] The two treatments being tested simultaneously in this competitive arrangement were placed alternately in the traps, i.e., the two traps baited with the same treatment were located diagonally from each other. Odorants diluted in hexane were released from glass capillaries placed in small vials in a container in each trap. […] Traps were then immediately baited. In each test, traps were checked and insects were removed at 1530 hrs and 1700 hrs on the day of release, and before 0900 hrs the next day (the time at which the test was terminated) in order to remove those insects which might have responded prior to darkness on the day of release.

[3] = Gas chromatographic analyses of the aldehyde released in the field; details: field conditions in which it was released
[4] = tested on: female C. capitata; assay: Wind tunnel assay with female Mediterranean fruit flies; assay type: in vivo, Ceratitis capitata; details: laboratory flight tunnel
Experimental: Flies were assayed in a rectangular glass wind tunnel (90 cm×90 cm×280 cm; flow rate=20 cm/sec) using laboratory-reared 5- to 7-day-old female C. capitata. The odor from 100 male C. capitata (30-50% calling) was obtained, and split through “Teflon” tubing to a secondary container containing the green leaf odor [either 100 μL of a 0.05% mixture in paraffin oil of trans-2-hexen-1-ol, 1-hexanol, cis-3-hexen-1-ol, trans-2-hexenal, and hexanal at a ratio of 158:100:63:24:11 (=glv, green leaf volatiles); or 100 μL of a 10% solution in silicon oil of trans-2-hexenal alone]. The odors were released into the wind tunnel via “Teflon” tubing to […] yellow plastic spheres [McInnis, J. Econ. Entomol. (in press)] with multiple holes to allow odors to emanate. Fifty flies were released 200 cm downwind from the source spheres, and both the number of flies on the spheres at a given time, and total number of landings by the flies were recorded during a 30-min test period. The test with the green leaf volatile blend was replicated five times; the test with trans-2-hexenal was replicated six times.

[5] = tested on: Boll Weevils; assay: Competitive field test with released weevils, triangular trap array; assay type: in vivo, Anthonomus grandis; details: for Mean Trap Capture: three replicates; for activity alone in competition with the other treatments: triangular array, 100 mg alone
Experimental: Two series of field tests were performed involving released boll weevils, in which grandlure was placed in competition with grandlure + the synergist. In the first series of experiments, a triangular array of traps was used. One trap was placed at each corner of a 20 m equilateral triangle (total of three traps). The three treatments released in this triangular array of traps were: 1) grandlure 3 mg; 2) grandlure 3 mg+synergist 100 mg; and 3) synergist 100 mg. The three synergists tested in these experiments were: trans-2-hexen-1-ol, 1-hexanol, and cis-3-hexen-1-ol. Cigarette filters were used to release the experimental odorants. One hundred insets (50 males and 50 females) were released along a line 20 m from each side of the triangle (300 insects total) at ca. 1000 hrs prior to baiting of the traps at 1200 hrs. Traps were check and insects were removed at 1400 hrs, 1600 hrs, and 1800 hrs, the times at which the test was terminated.

[6] = tested on: Scolytus multistriatus; assay: Field test with bark beetles, 4-wk, Orono, Me.; assay type: in vivo; details: for captures of bark beetles in traps when released with multilure, relative to the pheromone alone: 10 mg each; for Mean % Trap Capture: hexanal 10 mg, 1-hexanol 10 mg, multilure, alone or combined, 4-wk test period
Experimental: Mean % trap captures were calculated from competitive field tests during a 4-wk test period on campus of the University of Maine, Orono, Me. Total number of S. multistriatus captured was 423. Multilure consisted of α-multistriatin, methyl heptanol, and cubebene as obtained commercially from Dewill Corp., Elmhurst, Ill. Both 1-hexanol and hexanal were released from cigarette filters after dilution in the […] described [McKibben, supra]. Mean weekly trap captures were compared by Duncan's multiple range test [Duncan, Biometrics 11: 1-42 (1955)].

[7] = grandlure 3 mg vs cis-3-hexen-1-ol 100 mg vs both
[8] = grandlure 3 mg vs 1-hexanol 100 mg vs both

Compound	Response in impulses/initial 500 msec, Cell #1 [1] [impulses/initial 500 msec]	Response in impulses/initial 500 msec, Cell #2 [1] [impulses/initial 500 msec]	Response in impulses/initial 500 msec, Cell #3 [1] [impulses/initial 500 msec]	Response in impulses/initial 500 msec, Cell #4 [1] [impulses/initial 500 msec]	further results
α-bisabolol	3	12	3	2	–
CCCCCCC=O [heptanal]	1	0	0	16	–
CC(C)=CCC/C(C)=C/CO [geraniol]	1	3	5	0	–
C=C1CC/C=C(\C)CC[C@@H]2[C@@H]1CC2(C)C [β-caryophyllene]	2	2	0	1	–
CCC/C=C\CO [cis-2-hexen-1-ol]	–	–	–	–	synergism with grandlure (0.8 mg) in competition with grandlure (0.8 mg) alone [2]: no synergism
CCCCCCCCC=O [nonanal]	2	0	0	4	–
CC1=CC[C@H]2C[C@@H]1C2(C)C [(-)-α-pinene, (−)-α-pinene]	4	0	1	7	–
C=CC(=C)CCC=C(C)C [myrcene]	2	1	1	3	–
CCC/C=C/C=O [trans-2-hexenal]	27	24	1	38	synergism with grandlure (0.8 mg) in competition with grandlure (0.8 mg) alone [2]: no significant difference; degradation under field conditions [3]: in part been degraded; response of female flies to male odor plus the green leaf odor relative to male odor alone [4]: enhanced response
CC(C)=CCC/C(C)=C\CO [nerol]	3	4	8	11	–
(−)-limonene [(-)-limonene]	0	0	2	1	–
CC/C=C\CCO [cis-3-hexen-1-ol]	–	–	–	–	synergism with grandlure (0.8 mg) in competition with grandlure (0.8 mg) alone [2]: effective synergists; % Total [5, 7]: 0%; Mean Trap Capture [5, 7]: 0 B; activity alone in competition with the other treatments [5]: relatively inactive
CCCCCCO [1-hexanol]	11	30	42	–	synergism with grandlure (0.8 mg) in competition with grandlure (0.8 mg) alone [2]: effective synergists; captures of bark beetles in traps when released with multilure, relative to the pheromone alone [6]: increased; Mean % Trap Capture [6]: 0a %; % Total [5, 8]: 0%; Mean Trap Capture [5, 8]: 0 A; activity alone in competition with the other treatments [5]: relatively inactive
C=CC(C)(O)CCC=C(C)C (stereo not shown) [linalool]	3	2	1	11	–
CCCCCC=O [hexanal]	16	13	–	27	captures of bark beetles in traps when released with multilure, relative to the pheromone alone [6]: increased; Mean % Trap Capture [6]: 0.3a %
O=Cc1ccccc1 [benzaldehyde]	3	0	1	0	–
gossonerol	3	–	–	12	–
CC(C)=CCC[C@H](C)[C@@]1(O)CC=C(C)CC1 [β-bisabolol]	3	3	5	2	–
